Reference: patent US6329497A, “Sandramycin analogs” (The Scripps Research Institute, priority 1999, dated 2001)
“Also recorded” adds a separate entry of the source.

Tests used:
[1] = tested on: 5'-d(GCGCGC)2; test: Sandramycin binding to deoxyoligonucleotides, fluorescence quenching, 5'-d(GCGCGC)2
Protocol: (§1) Apparent absolute DNA binding constants for 1-22 and related agents including luzopeptin A were obtained by measurement of the fluorescence quenching upon titration addition of calf thymus DNA or the deoxyoligonucleotides 5'-d(GCXXGC)2 where XX=AT, TA, GC, and CG. For each agent, the characteristic fluorescence excitation and emission spectra were recorded in 10 mM Tris-HCl, 75 mM NaCl (pH 7.4) buffer, FIG. 6. For the DNA binding assays which quantitate the fluorescence quenching, excitation outside the absorbance range of DNA was employed and the most intense fluorescence emission at a longer wavelength monitored. For assay of the DNA-induced fluorescence quenching of the agents, a 2 mL buffer solution of Tris-HCl (pH 7.4) and 75 mM NaCl was employed. For titration, small aliquots of DNA were added to solutions of the agents in Tris-HCl buffer (pH 7.4).
(§2) A pronounced downward curvature in an infinite lattice such as calf thymus DNA is recognized to arise in part from neighbor exclusion where the binding of an agent excludes the subsequent binding at nearby sites. […]
(§3) After 5 min of stirring, an initial fluorescence reading was taken with minimum exposure to the excitation beam. […] The results of the titration were analyzed by Scatchard analysis. […]

[2] = tested on: 5'-d(GCCGGC)2; test: Sandramycin binding to deoxyoligonucleotides, fluorescence quenching, 5'-d(GCCGGC)2
Protocol: as §1, §2, §3

[3] = tested on: 5'-d(GCTAGC)2; test: Sandramycin binding to deoxyoligonucleotides, fluorescence quenching, 5'-d(GCTAGC)2
Protocol: as §1, §2, §3

[4] = biological target: HIV-1 reverse transcriptase (Human immunodeficiency virus type 1 group M subtype B, UniProt P04585); test: Inhibition of HIV-1 reverse transcriptase; format: biochemical
Protocol: The assay was performed according to an available procedure (Goldman, M. E.; Salituro, G. S.; Bowen, J. A.; Williamson, J. M.; Zink, D. L.; Schleif, W. A.; Emini, E. A. Mol. Pharmacol. 1990, 38, 20) with slight modification. A 45 L solution of reaction buffer containing 55 mM Tris·HCl, pH 8.2, 80 mM potassium chloride, 12 mM MgCl2, 1 mM DTT, 50 M EGTA, 2.5 g/mL rA·dT, 0.5 Ci of [^3 H]TTP, 10 M TTP, 1 mg/mL BSA, and 0.01% Triton X-100 was added to a well in a filter cluster plate (Millipore MAHV N45). The reverse transcription reaction was initiated upon addition of the reverse transcriptase (1 unit; 1 unit=10 pmol of [^3 H]TMP incorporated/60 min at 37° C.). The plate was incubated at 37° C. for 90 min. The plate was then placed on ice and 200 µL of 13% trichloroacetic acid and 10 mM sodium pyrophosphate was added to each well. The plate was chilled for 2 h and the liquid vacuumed out through the filter using a Millipore manifold (Millipore MAVM 09601). The precipitate was washed with 1 M and 10 mM sodium pyrophosphate twice. The filter was punched out and placed in a scintillation vial. 4 mL of cocktail was added. Radioactivity was determined by liquid scintillation counting.
The effects of sandramycin and its analogs on HIV-1 reverse transcriptase were determined by incubating the agents and the rA·dT containing buffer at 25° C. for 30 min prior to addition of the reverse transcriptase. Reactions containing no agents were used as controls, and those lacking the transcriptase were used as blanks.

[5] = tested on: HL-60; test: In vitro cytotoxic activity, HL-60; format: cell-based
[6] = tested on: leukemia cell lines; settings: typical
[7] = tested on: L1210 cell line; test: In vitro cytotoxic activity, L1210; format: cell-based
[8] = tested on: melanomas, carcinomas, and adenocarcinomas; test: In vitro cytotoxic activity of 4 against tumor cell lines; format: cell-based
[9] = tested on: two single mutant and one double mutant of HIV-1 reverse transcriptase; settings: cited from earlier work
[10] = tested on: five cell lines; test: In vitro cytotoxic activity of key substructure analogs, five cell lines; format: cell-based
[11] = tested on: calf thymus DNA; test: DNA binding constant determination for 23 (ethidium bromide displacement; sandramycin titration)
Protocol: Calf thymus DNA (1.0×10^-5 M in base-pair) was mixed with ethidium bromide (5.0×10^-6 M) resulting in a 2:1 ratio of base-pair:ethidium in a 10 mM Tris-HCl (pH 7.4), 75 mM NaCl buffer solution (2 mL). The fluorescence was calibrated at 24° C. to 100% F and 0% F with a DNA-ethidium buffer solution and ethidium buffer solution, respectively. The premixed DNA-ethidium solution was titrated with small aliquots of 23 (20 to 40 μL of 3 mM […] in DMSO) and incubated at 24° C. for 30 min prior to each fluorescence measurement. The fluorescence was measured with 545 nm excitation and 595 nm emission with a slit width of 10 nm. The absolute binding constant from three such titrations were determined at 50% ethidium bromide displacement as measured by a drop in fluorescence to 50%. The binding constant of ethidium bromide employed to calculate the absolute binding constant with a competitive or noncompetitive binding model^39 was 4.5×10^5 M^-1 and the results are summarized in Table 4.
A 2 mL of sample containing 400 μL of calf thymus DNA (320 μM in base-pair) with or without the presence of 40 μL of 23 (3.2×10^-3 M in DMSO) in 10 mM Tris-HCl (pH 7.4), 75 mM NaCl buffer solution was titrated with small aliquots of sandramycin (1 μL, 1.0×10^-3 M in DMSO). The quenching of fluorescence was measured 5 min after each addition of sandramycin with 360 nm excitation and 530 nm fluorescence.

CC(C)[C@H]1C(=O)OC[C@H](NC(=O)c2nc3ccccc3cc2O)C(=O)N2CCCC[C@@H]2C(=O)NCC(=O)N(C)CC(=O)N(C)[C@H](C(C)C)C(=O)OC[C@@H](NC(=O)c2nc3ccccc3cc2O)C(=O)N2CCCC[C@@H]2C(=O)NCC(=O)N(C)CC(=O)N1C [compound 1, Sandramycin]
G° relative to 5'-d(GCATGC)2 [1]: 0.3 kcal/mol | G° relative to 5'-d(GCATGC)2 [2]: 0.6 kcal/mol | G° relative to 5'-d(GCATGC)2 [3]: 0.6 kcal/mol | HIV-1 reverse transcriptase inhibition, in words [4]: slightly more effective than luzopeptin A | IC50 ([4]; range given for both agents): 130 to 190 nM

CC(C)[C@H]1C(=O)OC[C@@H](NC(=O)c2ccc3ccccc3n2)C(=O)N2CCCC[C@H]2C(=O)NCC(=O)N(C)CC(=O)N(C)[C@@H](C(C)C)C(=O)OC[C@@H](NC(=O)c2ccc3ccccc3n2)C(=O)N2CCCC[C@H]2C(=O)NCC(=O)N(C)CC(=O)N1C [compound 4, (N-(Quinol-inyl-2-carbonyl)-D-Ser-Pip-Gly-Sar-NMe-Val)2 (Serine Hydroxyl) Dilactone]
cytotoxic potency, in words [5]: exceptionally potent; also recorded: unusually potent | fold less potent than sandramycin (luzopeptin A or sandramycin) [6]: 4-10 | HIV-1 reverse transcriptase inhibition, in words [4]: Comparable but slightly less potent inhibition | fold less potent than sandramycin [4]: 3 | cytotoxic potency, fold less potent than 1 [7]: 10 | rank order of cytotoxic potency ([8]; carcinomas and adenocarcinomas): 4>luzopeptin A>sandramycin (1) | rank order of cytotoxic potency ([8]; melanomas): 4=luzopeptin A>sandramycin (1) | fold more potent than sandramycin (luzopeptin A or sandramycin) ([8]; melanomas, carcinomas, adenocarcinomas): 1-10,000

COc1ccc2nc(C(=O)N[C@@H]3COC(=O)[C@H](C(C)(C)O)N(C)C(=O)CN(C)C(=O)CNC(=O)[C@@H]4[C@@H](OC(=O)[C@@H]5C[C@H]5C)CC=NN4C(=O)[C@H](NC(=O)c4cnc5cc(OC)ccc5n4)COC(=O)[C@H](C(C)(C)O)N(C)C(=O)CN(C)C(=O)CNC(=O)[C@@H]4C(OC(=O)[C@@H]5C[C@H]5C)CC=NN4C3=O)cnc2c1 (some centres unmarked) [quinoxapeptin A]
relative effectiveness against mutants versus HIV-1 reverse transcriptase [9]: 1-3

(N-BOC-D-Ser-Pip-Gly-Sar-NMe-Val)2 (Serine Hydroxyl) Dilactone [compound 23]
cytotoxic activity, in words ([10]; both chromophores removed): inactive | fold less potent than 1 ([10]; five cell lines): approx 10^5 | G° of binding [11]: -6.0 kcal/mol
